Measured values taken from patent publication US20210220356A1, “DIHYDROPYRIMIDINE DERIVATIVES AND USES THEREOF IN THE TREATMENT OF HBV INFECTION OR OF HBV-INDUCED DISEASES” (Janssen Sciences Ireland Unlimited Company, priority 2018, published 2021).
Like-named read-outs stand apart in the source and are kept apart here.

Experiments:
HBV = HBV inhibitory activity in HepG2.2.15 cells (HBV DNA in culture medium by q-PCR); assay type: cell-based; conditions: HepG2.2.15 cells, 40,000 cells/well, 6 days of compound treatment, HBV DNA in culture medium by q-PCR, highest concentration 10 uM, read-out: EC50
Method in brief: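 HepG2.2.15 cells (40,000/well, 2% FBS) treated 6 days with compounds, medium refreshed once; 8 points, 3-fold dilution, top 10 uM. Secreted HBV DNA in medium extracted and quantified by q-PCR; EC50 calculated from dose-response.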

[1] = Cytotoxicity determination in HepG2.2.15 cells (CCK-8); assay type: cell-based; conditions: human, HepG2.2.15 cells, HepG2.2.15 cells, 5,000 cells/well, 6 days of compound treatment, CCK-8 absorbance 450 nm, highest concentration 100 uM
Method in brief: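 HepG2.2.15 cells, 5,000/well in 2% FBS medium, treated 6 days with compound (medium refreshed midway), 8-point 3-fold dilutions from 100 uM top. Viability read by CCK-8, 2.5 h at 37° C, absorbance 450 nm with 630 nm reference; CC50 from curve fitting.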

[2] = Hepatitis B virus, HepG2.2.15, 144 h

With `CCOC(=O)C1=C(C2CCc3[nH]ncc3C2)NC(c2nccs2)=NC1c1ccc(F)c(F)c1Cl` (stereo not shown) [Compound 66, Ethyl 4-(2-chloro-3,4-difluorophenyl)-6-(4,5,6,7-tetrahydro-1H-indazol-5-yl)-2-(thiazol-2-yl)-1,4-dihydropyrimidine-5-carboxylate] the EC50 (HBV; [2]) was 0.0647 µM and the CC50 at 6 days [1] was 6.4 µM.
For `CCOC(=O)C1=C(C2CCc3nn(CCC(=O)O)cc3C2)NC(c2nccs2)=NC1c1ccc(F)c(F)c1Br` (single isomer, unassigned) [Compound 36d, 3-(5-(6-(2-Bromo-3,4-difluorophenyl)-5-(ethoxycarbonyl)-2-(thiazol-2-yl)-3,6-dihydropyrimidin-4-yl)-4,5,6,7-tetrahydro-2H-indazol-2-yl)propanoic acid], the EC50 (HBV; [2]) was 0.0879 µM and the CC50 at 6 days [1] was 9.7 µM.
With `COC(=O)C1=C(C2CCc3nn(CCC(=O)O)cc3C2)NC(c2nccs2)=NC1c1cccc(F)c1Br` (single isomer, unassigned) [Compound 45b, 3-(5-(6-(2-Bromo-3-fluorophenyl)-5-(methoxycarbonyl)-2-(thiazol-2-yl)-3,6-dihydropyrimidin-4-yl)-4,5,6,7-tetrahydro-2H-indazol-2-yl)propanoic acid] the EC50 (HBV) was 0.213 µM and the CC50 at 6 days [1] was 18.2 µM.
With `CCOC(=O)C1=C(C2CCc3nn(C(C)CC(=O)O)cc3C2)NC(c2nccs2)=NC1c1ccc(F)c(F)c1Cl` (single isomer, unassigned) [Compound 51b, 3-(5-(6-(2-chloro-3,4-difluorophenyl)-5-(ethoxycarbonyl)-2-(thiazol-2-yl)-3,6-dihydropyrimidin-4-yl)-4,5,6,7-tetrahydro-2H-indazol-2-yl)butanoic acid] the EC50 (HBV) was 0.0117 µM and the CC50 at 6 days [1] was 7.7 µM.
In the case of `CCOC(=O)C1=C(C2Cc3cn(CCC(=O)O)nc3C(C)(C)C2)NC(c2nccs2)=NC1c1ccc(F)c(F)c1Cl` (stereo not shown) [Compound 55a, 3-(5-(6-(2-chloro-3,4-difluorophenyl)-5-(ethoxycarbonyl)-2-(thiazol-2-yl)-3,6-dihydropyrimidin-4-yl)-7,7-dimethyl-4,5,6,7-tetrahydro-2H-indazol-2-yl)propanoic acid], the EC50 (HBV) is reported as 0.081 µM and the CC50 at 6 days [1] is reported as 8.5 µM.
Work on `CCOC(=O)C1=C(C2CCc3nc(CCC(=O)O)sc3C2)NC(c2nccs2)=NC1c1ccc(F)c(F)c1Cl` (single isomer, unassigned) [Compound 60b, 3-(6-(6-(2-Chloro-3,4-difluorophenyl)-5-(ethoxycarbonyl)-2-(thiazol-2-yl)-3,6-dihydropyrimidin-4-yl)-4,5,6,7-tetrahydrobenzo[d]thiazol-2-yl)propanoic acid] yielded an EC50 (HBV; [2]) of 0.0241 µM and a CC50 at 6 days [1] of 3.4 µM.
With `CCOC(=O)C1=C(C2CCc3nn([C@H]4C[C@H](C(=O)O)C4)cc3C2)NC(c2nccs2)=NC1c1ccc(F)c(F)c1Cl` (stereo partly drawn) [Compound 54, (trans)-3-(5-(6-(2-Chloro-3,4-difluorophenyl)-5-(ethoxycarbonyl)-2-(thiazol-2-yl)-3,6-dihydropyrimidin-4-yl)-4,5,6,7-tetrahydro-2H-indazol-2-yl)cyclobutanecarboxylic acid] the EC50 (HBV; [2]) was 0.0198 µM and the CC50 at 6 days [1] was 16 µM.
For `CCOC(=O)C1=C(C2CCc3nn(CCC(=O)O)cc3C2)NC(c2nccs2)=NC1c1ccc(F)c(F)c1Cl` (single isomer, unassigned) [Compound 34a, 3-(5-(6-(2-chloro-3,4-difluorophenyl)-5-(ethoxycarbonyl)-2-(thiazol-2-yl)-3,6-dihydropyrimidin-4-yl)-4,5,6,7-tetrahydro-2H-indazol-2-yl)propanoic acid], the EC50 (HBV) was 0.385 µM and the CC50 at 6 days [1] was 27.5 µM.
